Key:
Toxoplasma = tested on: Toxoplasma; design: method as in PMID 22712598; settings: primary drug used to treat toxoplasmosis; cited from earlier work
[1] = SPECT/CT imaging of the iodine-125 radiotracer in infected mice; assay type: in vivo, mouse
Procedure: (§1) An isotopic exchange was performed to obtain the radiolabeled iodinated JF363. Briefly, 2 mg of the iodinated molecule was incubated in acetone with 3 mg of cold Na127I and 55.5 MBq of radioactive Na125I (PerkinElmer) for 1 h at 95 °C in a heat block. After evaporation of acetone, the radiotracer was solubilized in corn oil; 5% DMSO was also added to mimic the previous conditions. Quality controls were performed by TLC.
Three female CD1 mice (31.7 ± 1.3 g; Janvier Labs, Le Genest-Saint-Isle, France) and two female mice infected with T. gondii obtained as previously described (19.5 ± 2.1 g) were studied. The previous study gave the radiotracer by oral gavage (administered dose: 0.73 ± 0.25 MBq/g). Before imaging, mice were anesthetized using isoflurane (2% in a mixture of air: O2) and positioned in a thermostatic bed. Whole-body single-photon emission computerized tomography/computed tomography (SPECT/CT) acquisitions were performed 0.5, 3.5, and 24 h after injection using a dedicated system (nanoSPECT-CT; Mediso, Budapest, Hungary). First, CT and SPECT acquisitions were reconstructed and fused using Nucline software (Mediso, Budapest, Hungary). This fusion allowed drawing a volume of interest (VOI in cm^3) on selected/visible organs, and SPECT quantification based on CT was then performed using VivoQuant (InviCRO, Boston, MA, USA). Results were expressed in %ID/cm^3 or %ID/g (percentage of injected dose per cubic centimeter or gram of tissue).

[2] = Stability of the radiolabeled compound in the medium; assay type: physicochemical; settings: corn oil with 5% DMSO
Procedure: as §1

Toxoplasma gondii = tested on: Toxoplasma gondii; design: method as in PMID 20713670; settings: cited from earlier work

## CCc1nc(N)nc(N)c1-c1ccc(Cl)cc1 [pyrimethamine]
Toxoplasma
  IC50: 400 nM

## COc1cc(CC(=O)Nc2ccc(C(=O)NO)cc2)ccc1I [iodo-JF363]
[1]; Bladder, infected mouse #2, 0.5 h pi
  SPECT quantification: 5.5 %DI/cm^3
[1]; Bladder, infected mouse #2, 3.5 h pi
  SPECT quantification: 19.1 %DI/cm^3
[1]; Bladder, infected mouse #2, 24 h pi
  SPECT quantification: 0.6 %DI/cm^3
[1]; Bladder, infected mouse #3, 0.5 h pi
  SPECT quantification: 6.4 %DI/cm^3
[1]; Bladder, infected mouse #3, 3.5 h pi
  SPECT quantification: 8.2 %DI/cm^3
[1]; Bladder, infected mouse #3, 24 h pi
  SPECT quantification: 3.9 %DI/cm^3
[1]; Heart, infected mouse #2, 0.5 h pi
  SPECT quantification: 3.1 %DI/cm^3
[1]; Heart, infected mouse #2, 3.5 h pi
  SPECT quantification: 2.1 %DI/cm^3
[1]; Heart, infected mouse #2, 24 h pi
  SPECT quantification: 0.2 %DI/cm^3
[1]; Heart, infected mouse #3, 0.5 h pi
  SPECT quantification: 1.0 %DI/cm^3
[1]; Heart, infected mouse #3, 3.5 h pi
  SPECT quantification: 1.0 %DI/cm^3
[1]; Heart, infected mouse #3, 24 h pi
  SPECT quantification: 0.2 %DI/cm^3
[1]; Intestine, infected mouse #2, 0.5 h pi
  SPECT quantification: 16.7 %DI/cm^3
[1]; Intestine, infected mouse #2, 3.5 h pi
  SPECT quantification: 13.8 %DI/cm^3
[1]; Intestine, infected mouse #2, 24 h pi
  SPECT quantification: 0.5 %DI/cm^3
[1]; Intestine, infected mouse #3, 0.5 h pi
  SPECT quantification: 3.8 %DI/cm^3
[1]; Intestine, infected mouse #3, 3.5 h pi
  SPECT quantification: 4.9 %DI/cm^3
[1]; Intestine, infected mouse #3, 24 h pi
  SPECT quantification: 1.5 %DI/cm^3
[1]; Lungs, infected mouse #2, 0.5 h pi
  SPECT quantification: 1.8 %DI/cm^3
[1]; Lungs, infected mouse #2, 3.5 h pi
  SPECT quantification: 1.5 %DI/cm^3
[1]; Lungs, infected mouse #2, 24 h pi
  SPECT quantification: 0.1 %DI/cm^3
[1]; Lungs, infected mouse #3, 0.5 h pi
  SPECT quantification: 0.6 %DI/cm^3
[1]; Lungs, infected mouse #3, 3.5 h pi
  SPECT quantification: 0.5 %DI/cm^3
[1]; Lungs, infected mouse #3, 24 h pi
  SPECT quantification: 0.2 %DI/cm^3
[1]; Mouth, infected mouse #2, 0.5 h pi
  SPECT quantification: 10.0 %DI/cm^3
[1]; Mouth, infected mouse #2, 3.5 h pi
  SPECT quantification: 8.4 %DI/cm^3
[1]; Mouth, infected mouse #2, 24 h pi
  SPECT quantification: 4.7 %DI/cm^3
[1]; Mouth, infected mouse #3, 0.5 h pi
  SPECT quantification: 10.5 %DI/cm^3
[1]; Mouth, infected mouse #3, 3.5 h pi
  SPECT quantification: 6.8 %DI/cm^3
[1]; Mouth, infected mouse #3, 24 h pi
  SPECT quantification: 3.4 %DI/cm^3
[1]; Neck ganglia, infected mouse #2, 0.5 h pi
  SPECT quantification: 8.5 %DI/cm^3
[1]; Neck ganglia, infected mouse #2, 3.5 h pi
  SPECT quantification: 9.5 %DI/cm^3
[1]; Neck ganglia, infected mouse #2, 24 h pi
  SPECT quantification: 1.3 %DI/cm^3
[1]; Neck ganglia, infected mouse #3, 0.5 h pi
  SPECT quantification: 4.0 %DI/cm^3
[1]; Neck ganglia, infected mouse #3, 3.5 h pi
  SPECT quantification: 5.0 %DI/cm^3
[1]; Neck ganglia, infected mouse #3, 24 h pi
  SPECT quantification: 1.1 %DI/cm^3
[1]; Salivary glands, infected mouse #2, 0.5 h pi
  SPECT quantification: 16.7 %DI/cm^3
[1]; Salivary glands, infected mouse #2, 3.5 h pi
  SPECT quantification: 37.6 %DI/cm^3
[1]; Salivary glands, infected mouse #2, 24 h pi
  SPECT quantification: 3.0 %DI/cm^3
[1]; Salivary glands, infected mouse #3, 0.5 h pi
  SPECT quantification: 8.1 %DI/cm^3
[1]; Salivary glands, infected mouse #3, 3.5 h pi
  SPECT quantification: 20.3 %DI/cm^3
[1]; Salivary glands, infected mouse #3, 24 h pi
  SPECT quantification: 3.3 %DI/cm^3
[1]; Stomach, infected mouse #2, 0.5 h pi
  SPECT quantification: 12.1 %DI/cm^3
[1]; Stomach, infected mouse #2, 3.5 h pi
  SPECT quantification: 17.1 %DI/cm^3
[1]; Stomach, infected mouse #2, 24 h pi
  SPECT quantification: 4.2 %DI/cm^3
[1]; Stomach, infected mouse #3, 0.5 h pi
  SPECT quantification: 45.0 %DI/cm^3
[1]; Stomach, infected mouse #3, 3.5 h pi
  SPECT quantification: 42.7 %DI/cm^3
[1]; Stomach, infected mouse #3, 24 h pi
  SPECT quantification: 8.9 %DI/cm^3
[1]; Thyroid, infected mouse #2, 0.5 h pi
  SPECT quantification: 28.9 %DI/cm^3
[1]; Thyroid, infected mouse #2, 3.5 h pi
  SPECT quantification: 18.8 %DI/cm^3
[1]; Thyroid, infected mouse #2, 24 h pi
  SPECT quantification: 26.6 %DI/cm^3
[1]; Thyroid, infected mouse #3, 0.5 h pi
  SPECT quantification: 4.1 %DI/cm^3
[1]; Thyroid, infected mouse #3, 3.5 h pi
  SPECT quantification: 9.9 %DI/cm^3
[1]; Thyroid, infected mouse #3, 24 h pi
  SPECT quantification: 29.5 %DI/cm^3
[1]; both infected mice, 24 h pi
  SPECT activity in neck ganglia: ~ 1%
[1]; infected mouse #2, 30 min pi
  SPECT activity in neck ganglia: 8.5 % ID/cm^3
[1]; infected mouse #2, 3.5 h pi
  SPECT activity in neck ganglia: 9.5 % ID/cm^3
[1]; infected mouse #3, 30 min pi
  SPECT activity in neck ganglia: 4 % ID/cm^3
[1]; infected mouse #3, 3.5 h pi
  SPECT activity in neck ganglia: 5 % ID/cm^3
[1]; oral gavage of the radiotracer, mice
  route of elimination: primarily through the urinary tract
[2]
  stability in the medium: good up to 72 h

## FR235222
Toxoplasma gondii
  efficiency on parasite proliferation and ex vivo cyst formation: efficient in vitro

Reference: article PMC8952293, “A Histone Deacetylase (HDAC) Inhibitor with Pleiotropic In Vitro Anti-Toxoplasma and Anti-Plasmodium Activities Controls Acute and Chronic Toxoplasma Infection in Mice” (International Journal of Molecular Sciences, 2022)
